We go through ten compounds from patent publication US11130780B2, “Inhibitors of growth factor activation enzymes” (Washington University, priority 2015, dated 2021).

Like-named read-outs stand apart in the source and are kept apart here.

Format in all cases: biochemical
For assay [1], the target named is T1, matriptase (Homo sapiens, UniProt Q9Y5Y6).
T1 construct: Charles Craik, UCSF (obtained from another laboratory)
T1 sequence (Q9Y5Y6 615-855 limits assumed): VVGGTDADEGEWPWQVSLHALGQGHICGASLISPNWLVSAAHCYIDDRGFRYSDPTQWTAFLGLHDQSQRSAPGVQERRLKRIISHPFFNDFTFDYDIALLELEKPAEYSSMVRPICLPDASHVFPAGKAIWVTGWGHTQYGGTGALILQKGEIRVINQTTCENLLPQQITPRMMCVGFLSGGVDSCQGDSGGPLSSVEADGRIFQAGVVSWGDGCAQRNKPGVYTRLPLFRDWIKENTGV
Description: Fluorescent kinetic enzyme inhibitor assay of matriptase. The conditions noted are these: for IC50: Table 4.1; for Ki: Table 4.2, Boc-QAR-AMC substrate. The method in brief: (§1)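 Fluorescence (ex 380/em 460 nm) followed kinetically at room temperature; IC50 from four-parameter fit of mean velocity versus concentration, averaged over three experiments.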

The target of assay [2] is T2, hepsin (Homo sapiens, UniProt P05981).
T2 construct: purchased R&D Systems 4776-SE-010
Description: Fluorescent kinetic enzyme inhibitor assay of hepsin. The conditions noted are these: for IC50: Table 4.1. An outline of the steps: as §1

The target of assay [3] is T3, HGFA (Homo sapiens, UniProt Q04756).
T3 construct: His6 tag (N); seven amino acid spacer and seven amino acid TEV cleavage site (N); Honey Bee melittin signal peptide (N); made in house; host or cells: High 5 insect cells (baculovirus; virus raised in Sf9)
T3 sequence (Q04756 373-655): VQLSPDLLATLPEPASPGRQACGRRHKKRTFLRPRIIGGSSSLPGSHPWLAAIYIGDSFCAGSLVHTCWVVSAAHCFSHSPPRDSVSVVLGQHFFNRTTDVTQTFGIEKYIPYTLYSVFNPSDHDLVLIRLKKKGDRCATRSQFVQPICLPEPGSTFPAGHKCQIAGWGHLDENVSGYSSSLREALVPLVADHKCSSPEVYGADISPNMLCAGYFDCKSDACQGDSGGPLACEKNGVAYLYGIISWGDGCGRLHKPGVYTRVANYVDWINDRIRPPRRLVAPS
Description: Chromogenic kinetic enzyme inhibitor assay of HGFA. The settings on record: Table 4.1; chromogenic substrate Pefachrome FVIIa. From the text:
This PCR product was cloned into the SfoI-HindIII sites of a modified pFastBac HT baculovirus expression vector (Addgene, Cambridge, Mass.). This vector contains a six amino His tag followed by a seven amino spacer and a seven amino acid TEV cleavage site placed immediately downstream of the Honey Bee melittin signal peptide. Using a modified Bac to Bac Expression System (Life Technologies, Carlsbad, Calif.), recombinant HGFA bacmids were obtained by transforming DH10Bac Escherichia coli cells. To obtain HGFA containing baculovirus, purified bacmids were transfected into Sf9 insect cells. After 5 days in culture at 27° C., media was harvested from transfected Sf9 cells. This media was used to prepare baculovirus infected insect cells (BIICs). These BIIICs were used to infect High 5 insect cells. Four days post infection, media was harvested and recombinant protein prepared as follows. Media was chilled to 4° C. and spun at 4000×g for 20 minutes (all subsequent steps were performed at 4° C. unless noted). […] Concentrated media was then buffer exchanged in two steps, five volumes of 50 mM Na-phosphate, 500 mM NaCl, pH 6.2, followed by five volumes of 50 mM Na-phosphate, 500 mM NaCl, pH 7.5. […] After mixing this slurry for 12 hours, nickel agarose beads were allowed to settle by gravity and then loaded into a column. Beads were washed with buffer (25 mM Na-phosphate, 500 mM NaCl, 25 mM imidazole, pH 8) and the bound protein eluted using (25 mM Na-phosphate, 500 mM NaCl, 250 mM imidazole, pH 8). Using a Amicon Ultra-4 Centrifugal filters (#UFC801008, Merck Millipore, Ltd., Tullagreen, Ireland), peak protein fractions were concentrated and run over a Superdex-200 10/300 GL column (GE Healthcare Life Sciences, Piscataway, N.J.) in 10 mM Tris, 200 mM NaCl, 0.2 mM EDTA, pH 8. HGFA containing fractions were pooled, concentrated, made 50% glycerol, and stored at minus 20° C. Protein was quantitated using a modified Lowry protein assay (#500-0006, Bio-Rad Laboratories, Hercules, Calif.).
Using Gen 5 2.00 software program (Biotek, Winnoski, Vt.), a four parameter curve fit was used to determine the inhibitor IC50s from a plot of the mean reaction velocity versus the inhibitor concentration. The IC50 values represent the average of three separate experimental determinations.

Assay [4] concerns the target thrombin (Homo sapiens, UniProt P00734). Description: Chromogenic kinetic enzyme assay of thrombin. The settings on record: Table 4.1; read-out: Thrombin Ki. An outline of the steps:
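Recombinant human thrombin (0.15 nM) or Factor Xa (0.35 nM) was mixed with 11-point inhibitor dilutions (0–20 μM, 2% DMSO) in TNC buffer, pH 8. Kinetic absorbance at 405 nm gave velocities. IC50 came from a four-parameter fit and Ki from Cheng–Prusoff.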

Where [5] appears, read: Table 4.2, Boc-QAR-AMC substrate, read-out: Hepsin Ki.

T2 sequence (P05981 163-417 limits assumed): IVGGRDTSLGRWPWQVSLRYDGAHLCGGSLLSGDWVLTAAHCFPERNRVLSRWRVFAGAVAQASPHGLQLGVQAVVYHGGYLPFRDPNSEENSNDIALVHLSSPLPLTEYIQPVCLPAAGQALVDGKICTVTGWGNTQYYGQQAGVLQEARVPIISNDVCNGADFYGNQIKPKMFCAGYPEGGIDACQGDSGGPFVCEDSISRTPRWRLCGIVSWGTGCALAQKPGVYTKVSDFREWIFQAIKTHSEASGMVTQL
T2 sequence (P05981 45-162 partner limits assumed): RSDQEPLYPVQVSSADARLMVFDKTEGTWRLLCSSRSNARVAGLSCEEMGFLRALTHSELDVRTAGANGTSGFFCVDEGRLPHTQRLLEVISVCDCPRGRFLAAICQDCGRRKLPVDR

Consider `CC(=O)N[C@@H](CCCNC(=N)N)C(=O)N[C@@H](CCC(N)=O)C(=O)N[C@@H](CC(C)C)C(=O)N[C@@H](CCCNC(=N)N)C(=O)c1nccs1` [Compound 5e, Ac-RQLR(SEQ ID NO: 6)-kt], for which the IC50 in assay [1] was found to be 0.001 µM; in assay [2] it was 0.001 µM; in assay [3], 0.27 µM. The Ki in assay [4] is more than 20 µM.

With `CC(=O)N[C@@H](CCCCN)C(=O)N[C@@H](CCC(N)=O)C(=O)N[C@@H](CC(C)C)C(=O)N[C@@H](CCCNC(=N)N)C(=O)c1nccs1` [Compound 5, Ac-KQLR(SEQ ID NO: 1)-kt], the “fold more potent for matriptase versus HGFA” value in assay [1] is reported as 50 fold. The figures for the IC50 in assay [1], in assay [2] and in assay [3] were 0.005 µM, 0.002 µM and 0.445 µM, respectively. The Ki in assay [1] was 0.0016 µM; in assay [2] (setting [5]), 0.00019 µM; in assay [4] it was more than 20 µM. Moreover, the “fold more potent for hepsin versus HGFA” value in assay [2] is listed as 200 fold.

On to `CC(=O)N[C@@H](CCCCN)C(=O)N[C@@H](CCCNC(=N)N)C(=O)N[C@@H](CC(C)C)C(=O)N[C@@H](CCCNC(=N)N)C(=O)c1nccs1` [Compound 5g, Ac-KRLR(SEQ ID NO: 8)-kt], for which the IC50 in assay [1] worked out at 0.014 µM; in assay [2] it was 0.005 µM; in assay [3], 0.225 µM.

As to `CC(=O)N[C@@H](CO)C(=O)N[C@@H](CCCCN)C(=O)N[C@@H](CC(C)C)C(=O)N[C@@H](CCCNC(=N)N)C(=O)c1nccs1` [Compound 6, Ac-SKLR(SEQ ID NO: 10)-kt], in assay [1], the “fold more potent for matriptase versus HGFA” value is “only slightly more potent”. In addition, the IC50 in assay [1] is 0.048 µM; in assay [3], 0.56 µM. In assay [2], the “fold more potent for hepsin versus HGFA” value turned out to be 70 fold. Besides, the Ki in assay [2] (setting [5]) was 0.0012 µM; in assay [4], more than 20 µM.

Take `CC(=O)N[C@@H](Cc1c[nH]c2ccccc12)C(=O)N[C@@H](CCCNC(=N)N)C(=O)N[C@@H](CC(C)C)C(=O)N[C@@H](CCCNC(=N)N)C(=O)c1nccs1` [Compound 5h, Ac-WRLR(SEQ ID NO: 9)-kt]: the concentration for half-maximal inhibition (IC50) in assay [1] worked out at 0.031 µM; in assay [2] it was 0.0003 µM; in assay [3], 0.275 µM. In addition, the Ki in assay [2] (setting [5]) was determined as 0.00021 µM.

Regarding `CC(=O)N[C@@H](CO)C(=O)N[C@@H](CCCCN)C(=O)N[C@@H](Cc1ccccc1)C(=O)N[C@@H](CCCNC(=N)N)C(=O)c1nccs1` [Compound 6c, Ac-SKFR(SEQ ID NO: 13)-kt], the IC50 in assay [1] came to 0.034 µM; in assay [2], 0.051 µM; in assay [3], 0.52 µM. In addition, the Ki in assay [4] was more than 2 µM.

On to `N=C(N)c1ccc2cc(OC(=O)c3ccc(N=C(N)N)cc3)ccc2c1` [Nafamostat, reference compound], for which the 50% inhibitory concentration (IC50) in assay [2] came out at 0.002 µM; in assay [3] it was 0.8 µM. Further, the inhibition constant Ki in assay [2] (setting [5]) stood at 0.00053 µM.

In the case of `CC(=O)N[C@@H](CO)C(=O)N[C@@H](Cc1c[nH]c2ccccc12)C(=O)N[C@@H](CC(C)C)C(=O)N[C@@H](CCCNC(=N)N)C(=O)c1nccs1` [Compound 6g, Ac-SWLR(SEQ ID NO: 17)-kt], the results for the IC50 in assay [1], in assay [2] and in assay [3] were 0.175 µM, 0.009 µM and 0.435 µM, respectively. Further, the inhibition constant Ki is 0.0012 µM in assay [2] (read-out: Ki for hepsin) and 3.7 µM in assay [4].

Turning to `CC(=O)N[C@@H](CO)C(=O)N[C@@H](CCCNC(=N)N)C(=O)N[C@@H](CC(C)C)C(=O)N[C@@H](CCCNC(=N)N)C(=O)c1nccs1` [Compound 6e, Ac-SRLR(SEQ ID NO: 15)-kt], the concentration for half-maximal inhibition (IC50) in assay [1] turned out to be 0.024 µM; in assay [2], 0.005 µM; in assay [3], 0.303 µM.

Regarding `CC(=O)N[C@@H](CCCCN)C(=O)N[C@@H](CCC(N)=O)C(=O)N[C@@H](Cc1ccccc1)C(=O)N[C@@H](CCCNC(=N)N)C(=O)c1nccs1` [Compound 5c, Ac-KQFR(SEQ ID NO: 4)-kt], the Ki in assay [1] is 0.00069 µM; in assay [2] (setting [5]), 0.00058 µM; in assay [4], more than 20 µM. In assay [3], half-maximal inhibition (IC50) was put at 0.47 µM.
